Patent US11040035B2, “3-oxo-2,6-diphenyl-2,3-dihydropyridazine-4-carboxamides” (BAYER PHARMA AKTIENGESELLSCHAFT, priority 2016, dated 2021)

Columns and labels:
AHR [1] = target: T1, AHR (Homo sapiens, UniProt P35869); test: In vitro assay 2: agonism in human cell line (transactivation assay)
T1 sequence (P35869 11-848): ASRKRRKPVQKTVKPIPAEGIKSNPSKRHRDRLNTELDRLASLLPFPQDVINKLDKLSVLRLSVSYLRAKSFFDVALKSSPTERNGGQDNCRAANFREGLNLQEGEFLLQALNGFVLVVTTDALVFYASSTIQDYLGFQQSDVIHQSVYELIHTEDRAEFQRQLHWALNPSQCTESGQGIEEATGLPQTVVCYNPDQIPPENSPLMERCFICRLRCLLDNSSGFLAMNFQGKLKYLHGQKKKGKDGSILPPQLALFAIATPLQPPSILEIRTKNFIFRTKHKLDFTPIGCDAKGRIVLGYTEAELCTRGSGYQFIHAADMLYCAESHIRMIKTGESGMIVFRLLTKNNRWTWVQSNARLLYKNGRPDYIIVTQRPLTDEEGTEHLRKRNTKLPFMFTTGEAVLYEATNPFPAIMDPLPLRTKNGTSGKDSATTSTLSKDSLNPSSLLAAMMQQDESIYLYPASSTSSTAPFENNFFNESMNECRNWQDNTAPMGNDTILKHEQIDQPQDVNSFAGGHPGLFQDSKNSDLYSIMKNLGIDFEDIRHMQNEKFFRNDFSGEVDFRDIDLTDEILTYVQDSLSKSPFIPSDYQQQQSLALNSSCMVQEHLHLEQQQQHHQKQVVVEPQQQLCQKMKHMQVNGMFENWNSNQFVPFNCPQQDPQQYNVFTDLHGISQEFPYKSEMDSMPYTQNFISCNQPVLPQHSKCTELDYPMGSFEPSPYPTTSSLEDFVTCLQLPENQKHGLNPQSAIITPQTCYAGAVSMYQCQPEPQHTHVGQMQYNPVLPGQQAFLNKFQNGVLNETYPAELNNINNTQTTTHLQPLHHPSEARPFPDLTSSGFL

AHR [2] = target: T1, AHR; test: In vitro assay 1: antagonism in human cell line (transactivation assay, kynurenic acid prestimulated); conditions: Assay 1: AHR-luc Hum Antagonism IC50 [M], 150 μM kynurenic acid, 20 hours, firefly luciferase
[3] = Assay 2: AHR-luc Hum Agonism IC50 [M], no kynurenic acid, 20 hours, firefly luciferase
[4] = read-out: Assay 2: AHR-luc Hum Agonism IC50, no kynurenic acid, 20 hours, firefly luciferase

SMILES | IC50 (AHR [1]; [3]) [M] | IC50 (AHR [2]) [M] | IC50 (AHR [1]; [4]) [M]
CN(C)CC(O)CNC(=O)c1cc(-c2ccc(Cl)cc2)nn(-c2cccc(F)c2)c1=O (racemic) [Example 235, 6-(4-Chlorophenyl)-N-[(2RS)-3-(dimethylamino)-2-hydroxypropyl]-2-(3-fluorophenyl)-3-oxo-2,3-dihydropyridazine-4-carboxamide] | > 2e-05 | 3e-06 | –
COCC(O)CNC(=O)c1cc(-c2ccc(Cl)c(Cl)c2)nn(-c2cccc(F)c2)c1=O (stereo not drawn) [Example 303, 6-(3,4-Dichlorophenyl)-2-(3-fluorophenyl)-N-(2-hydroxy-3-methoxypropyl)-3-oxo-2,3-dihydropyridazine-4-carboxamide] | > 2e-05 | 8.73e-07 | –
O=C(NC1(CO)CCCCC1)c1cc(-c2ccc(Cl)cc2)nn(-c2cccc(F)c2)c1=O [Example 215, 6-(4-Chlorophenyl)-2-(3-fluorophenyl)-N-[1-(hydroxymethyl)cyclohexyl]-3-oxo-2,3-dihydropyridazine-4-carboxamide] | > 2e-05 | 1.66e-07 | –
O=C(NC(CO)C1CCOC1)c1cc(-c2ccc(Cl)c(F)c2)nn(-c2cccc(F)c2)c1=O (single isomer, unassigned) [Example 292, 6-(4-Chloro-3-fluorophenyl)-2-(3-fluorophenyl)-N-[2-hydroxy-1-(tetrahydrofuran-3-yl)ethyl]-3-oxo-2,3-dihydropyridazine-4-carboxamide] | > 2e-05 | 3.09e-07 | –
COCC(O)CNC(=O)c1cc(-c2ccc(Cl)cc2)nn(-c2cccc(F)c2)c1=O (single isomer, unassigned) [Example 33, 6-(4-Chlorophenyl)-2-(3-fluorophenyl)-N-(2-hydroxy-3-methoxypropyl)-3-oxo-2,3-dihydropyridazine-4-carboxamide] | – | 2.11e-07 | > 2e-05
O=C(NCC(O)C(F)(F)F)c1cc(-c2ccc(Cl)cc2)nn(-c2cccc(Cl)c2)c1=O (single isomer, unassigned) [Example 64, 2-(3-Chlorophenyl)-6-(4-chlorophenyl)-3-oxo-N-(3,3,3-trifluoro-2-hydroxypropyl)-2,3-dihydropyridazine-4-carboxamide] | – | 3.66e-07 | > 2e-05
CC(C)(C)OC(=O)N1C[C@H](O)[C@H](NC(=O)c2cc(-c3ccc(Cl)cc3)nn(-c3cccc(F)c3)c2=O)C1 [Example 387, tert-butyl (3R,4S)-3-({[6-(4-chlorophenyl)-2-(3-fluorophenyl)-3-oxo-2,3-dihydropyridazin-4-yl]carbonyl}amino)-4-hydroxypyrrolidine-1-carboxylate] | > 2e-05 | 3.5e-07 | –
CC(C)(O)C(NC(=O)c1cc(-c2ccc(Cl)cc2)nn(-c2cccc(F)c2)c1=O)C(F)(F)F (single isomer, unassigned) [Example 278, 6-(4-Chlorophenyl)-2-(3-fluorophenyl)-3-oxo-N-(1,1,1-trifluoro-3-hydroxy-3-methylbutan-2-yl)-2,3-dihydropyridazine-4-carboxamide] | > 2e-05 | 2.05e-07 | –
O=C(NCC(O)C(F)(F)F)c1cc(-c2ccc(Cl)c(F)c2)nn(-c2cc(F)cc(F)c2)c1=O (stereo not drawn) [Example 403, 6-(4-chloro-3-fluorophenyl)-2-(3,5-difluorophenyl)-3-oxo-N-(3,3,3-trifluoro-2-hydroxypropyl)-2,3-dihydropyridazine-4-carboxamide] | > 2e-05 | 3.1e-07 | –
C[C@H](CO)NC(=O)c1cc(-c2ccc(Cl)cc2)nn(-c2cccc(F)c2)c1=O [Example 24, 6-(4-Chlorophenyl)-2-(3-fluorophenyl)-N-[(2R)-1-hydroxypropan-2-yl]-3-oxo-2,3-dihydropyridazine-4-carboxamide] | > 2e-05 | 3.02e-07 | –
O=C(N[C@@H](CO)Cc1ccccc1)c1cc(-c2ccc(Cl)cc2)nn(-c2cccc(F)c2)c1=O [Example 219, (+)-6-(4-Chlorophenyl)-2-(3-fluorophenyl)-N-[(2R)-1-hydroxy-3-phenylpropan-2-yl]-3-oxo-2,3-dihydropyridazine-4-carboxamide] | > 2e-05 | 3.38e-06 | –

Results, then the molecule that gave them:

IC50 (AHR [1]; [3]) [M] | IC50 (AHR [2]) [M] | IC50 (AHR [1]; [4]) [M] | SMILES
> 2e-05 | 8.23e-08 | – | Cc1ccc(-c2cc(C(=O)NC(CO)C3CC3)c(=O)n(-c3cccc(F)c3)n2)cc1 (racemic) [Example 236, N-[(1RS)-1-Cyclopropyl-2-hydroxyethyl]-2-(3-fluorophenyl)-6-(4-methylphenyl)-3-oxo-2,3-dihydropyridazine-4-carboxamide]
> 2e-05 | 8.37e-08 | – | O=C(NC(CO)C1CCOC1)c1cc(-c2ccc(OC(F)F)cc2)nn(-c2cccc(F)c2)c1=O (stereo not drawn) [Example 144, 6-[4-(Difluoromethoxy)phenyl]-2-(3-fluorophenyl)-N-{(2-hydroxy-1-tetrahydrofuran-3-yl)ethyl}-3-oxo-2,3-dihydropyridazine-4-carboxamide]
> 2e-05 | 1.65e-07 | – | C[C@@H](CO)NC(=O)c1cc(-c2ccc(Cl)cc2)nn(-c2cccc(Cl)c2)c1=O [Example 66, 2-(3-Chlorophenyl)-6-(4-chlorophenyl)-N-[(2S)-1-hydroxypropan-2-yl]-3-oxo-2,3-dihydropyridazine-4-carboxamide]
> 2e-05 | 9.65e-08 | – | O=C(NCC1(O)CCOCC1)c1cc(-c2ccc(Cl)cc2)nn(-c2cccc(F)c2)c1=O [Example 325, 6-(4-chlorophenyl)-2-(3-fluorophenyl)-N-[(4-hydroxytetrahydro-2H-pyran-4-yl)methyl]-3-oxo-2,3-dihydropyridazine-4-carboxamide]
– | 1.49e-08 | > 2e-05 | O=C(NC(CCO)C(F)(F)F)c1cc(-c2ccc(Cl)cc2)nn(-c2cccc(F)c2)c1=O (single isomer, unassigned; (+)) [Example 343, (+)-6-(4-chlorophenyl)-2-(3-fluorophenyl)-3-oxo-N-(1,1,1-trifluoro-4-hydroxybutan-2-yl)-2,3-dihydropyridazine-4-carboxamide]
– | 1.28e-07 | > 2e-05 | O=C(NCC(O)C(F)F)c1cc(-c2ccc(Cl)cc2)nn(-c2cccc(F)c2)c1=O (single isomer, unassigned; (+)) [Example 223, (+)-6-(4-Chlorophenyl)-N-(3,3-difluoro-2-hydroxypropyl)-2-(3-fluorophenyl)-3-oxo-2,3-dihydropyridazine-4-carboxamide]
– | 1.51e-07 | > 2e-05 | O=C(N[C@@H]1CCCC[C@@H]1O)c1cc(-c2ccc(Cl)cc2)nn(-c2cccc(F)c2)c1=O (single isomer, unassigned) [Example 105, 6-(4-Chlorophenyl)-2-(3-fluorophenyl)-N-(cis-2-hydroxycyclohexyl)-3-oxo-2,3-dihydropyridazine-4-carboxamide]
– | 5.64e-08 | > 2e-05 | O=C(NCC(O)C(F)(F)F)c1cc(-c2ccc(Cl)cc2)nn(-c2cc(F)cc(F)c2)c1=O (single isomer, unassigned) [Example 46, 6-(4-Chlorophenyl)-2-(3,5-difluorophenyl)-3-oxo-N-(3,3,3-trifluoro-2-hydroxypropyl)-2,3-dihydropyridazine-4-carboxamide]
> 2e-05 | 1.21e-08 | – | O=C(NC(CO)C1CC1)c1cc(-c2ccc(Cl)cc2)nn(-c2cccc(F)c2)c1=O (single isomer, unassigned; (-)) [Example 194, (−)-6-(4-Chlorophenyl)-N-(1-cyclopropyl-2-hydroxyethyl)-2-(3-fluorophenyl)-3-oxo-2,3-dihydropyridazine-4-carboxamide]
> 2e-05 | 4.93e-08 | – | CC(C)C(O)CNC(=O)c1cc(-c2ccc(Cl)cc2)nn(-c2cc(F)cc(F)c2)c1=O (stereo not drawn) [Example 48, 6-(4-Chlorophenyl)-2-(3,5-difluorophenyl)-N-(2-hydroxy-3-methylbutyl)-3-oxo-2,3-dihydropyridazine-4-carboxamide]
> 2e-05 | 1.15e-07 | – | O=C(N[C@@H]1CC[C@@H]1O)c1cc(-c2ccc(Cl)cc2)nn(-c2cccc(F)c2)c1=O (single isomer, unassigned) [Example 358]
> 2e-05 | 7.81e-08 | – | CC(O)C(C)NC(=O)c1cc(-c2ccc(OC(F)F)cc2)nn(-c2cccc(F)c2)c1=O (single isomer, unassigned) [Example 141, 6-[4-(Difluoromethoxy)phenyl]-2-(3-fluorophenyl)-N-(3-hydroxybutan-2-yl)-3-oxo-2,3-dihydropyridazine-4-carboxamide]
> 2e-05 | 6.29e-08 | – | CC(CCO)NC(=O)c1cc(-c2ccc(Cl)cc2)nn(-c2cccc(F)c2)c1=O (single isomer, unassigned; (+)) [Example 207, (+)-6-(4-Chlorophenyl)-2-(3-fluorophenyl)-N-(4-hydroxybutan-2-yl)-3-oxo-2,3-dihydropyridazine-4-carboxamide]
